Test results from PubChem BioAssay (NCI).
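Where inhibition never reached the appropriate level, the endpoint shown equals the highest concentration tested. Otherwise, values were interpolated linearly from a five-concentration, 48-hour dose response in 96-well plates. TGI denotes the concentration required for complete inhibition of growth.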

Experiments:
Experiment in all cases: growth of human tumour cells (NCI), 48 h
[1] = test system: 786-0 renal
[2] = test system: A498 renal
[3] = test system: A549 NSCLC
[4] = test system: ACHN renal
[5] = test system: CAKI-1 renal
[6] = test system: CCRF-CEM leukemia
[7] = test system: COLO 205 colon
[8] = test system: DU-145 prostate
[9] = test system: EKVX NSCLC
[10] = test system: HCC-2998 colon
[11] = test system: HCT-116 colon
[12] = test system: HCT-15 colon
[13] = test system: HOP-62 NSCLC
[14] = test system: HT29 colon
[15] = test system: IGROV1 ovarian
[16] = test system: K-562 leukemia
[17] = test system: KM12 colon
[18] = test system: LOX IMVI melanoma
[19] = test system: M14 melanoma
[20] = test system: MALME-3M melanoma
[21] = test system: MCF7 breast
[22] = test system: MDA-MB-231 breast
[23] = test system: MDA-MB-435
[24] = test system: MDA-N
[25] = test system: MOLT-4 leukemia
[26] = test system: NCI-H226 lung
[27] = test system: NCI-H23 lung
[28] = test system: NCI-H460 lung
[29] = test system: NCI-H522 lung
[30] = test system: NCI/ADR-RES ovarian
[31] = test system: OVCAR-3 ovarian
[32] = test system: OVCAR-4 ovarian
[33] = test system: OVCAR-5 ovarian
[34] = test system: OVCAR-8 ovarian
[35] = test system: PC-3 prostate
[36] = test system: RXF 393 renal
[37] = test system: SF-268 CNS
[38] = test system: SF-295 CNS
[39] = test system: SF-539 CNS
[40] = test system: SK-MEL-2 melanoma
[41] = test system: SK-MEL-28 melanoma
[42] = test system: SK-MEL-5 melanoma
[43] = test system: SK-OV-3 ovarian
[44] = test system: SN12C renal
[45] = test system: SNB-19 CNS
[46] = test system: SNB-75 CNS
[47] = test system: SR leukemia
[48] = test system: SW-620 colon
[49] = test system: T-47D breast
[50] = test system: TK-10 renal
[51] = test system: U251 CNS
[52] = test system: UACC-257 melanoma
[53] = test system: UACC-62 melanoma
[54] = test system: UO-31 renal
[55] = test system: BT-549 breast
[56] = test system: HOP-92 NSCLC
[57] = test system: RPMI-8226 leukemia

Structure (SMILES): O=C1C(=Nc2ccccc2)Oc2cc(O)ccc21
- TGI [1]: > 100 µM
- TGI [2]: > 100 µM
- TGI [3]: > 100 µM
- TGI [4]: > 100 µM
- TGI [5]: > 100 µM
- TGI [6]: > 100 µM
- TGI [7]: > 100 µM
- TGI [8]: > 100 µM
- TGI [9]: > 100 µM
- TGI [10]: > 100 µM
- TGI [11]: > 100 µM
- TGI [12]: > 100 µM
- TGI [13]: > 100 µM
- TGI [14]: > 100 µM
- TGI [15]: > 100 µM
- TGI [16]: > 100 µM
- TGI [17]: > 100 µM
- TGI [18]: > 100 µM
- TGI [19]: > 100 µM
- TGI [20]: > 100 µM
- TGI [21]: > 100 µM
- TGI [22]: > 100 µM
- TGI [23]: > 100 µM
- TGI [24]: > 100 µM
- TGI [25]: > 100 µM
- TGI [26]: > 100 µM
- TGI [27]: > 100 µM
- TGI [28]: > 100 µM
- TGI [29]: > 100 µM
- TGI [30]: > 100 µM
- TGI [31]: > 100 µM
- TGI [32]: > 100 µM
- TGI [33]: > 100 µM
- TGI [34]: > 100 µM
- TGI [35]: > 100 µM
- TGI [36]: > 100 µM
- TGI [37]: > 100 µM
- TGI [38]: > 100 µM
- TGI [39]: > 100 µM
- TGI [40]: > 100 µM
- TGI [41]: > 100 µM
- TGI [42]: > 100 µM
- TGI [43]: > 100 µM
- TGI [44]: > 100 µM
- TGI [45]: > 100 µM
- TGI [46]: > 100 µM
- TGI [47]: > 100 µM
- TGI [48]: > 100 µM
- TGI [49]: > 100 µM
- TGI [50]: > 100 µM
- TGI [51]: > 100 µM
- TGI [52]: > 100 µM
- TGI [53]: > 100 µM
- TGI [54]: > 100 µM

Structure (SMILES): COC(=O)C1=C(CCCCO[Si](C)(C)C(C)(C)C)NC(=O)N2[C@@H](CCOCc3ccccc3)CC[C@H]12
- TGI [1]: 30.9 µM
- TGI [2]: > 100 µM
- TGI [3]: 77.7 µM
- TGI [4]: > 100 µM
- TGI [55]: 51 µM
- TGI [5]: 92.9 µM
- TGI [6]: 51.9 µM
- TGI [7]: 32.4 µM
- TGI [8]: > 100 µM
- TGI [9]: > 100 µM
- TGI [10]: 78.9 µM
- TGI [11]: 24.6 µM
- TGI [12]: 43.9 µM
- TGI [13]: 65.2 µM
- TGI [56]: 34.4 µM
- TGI [14]: 35.1 µM
- TGI [16]: > 100 µM
- TGI [17]: 44.2 µM
- TGI [19]: 79.4 µM
- TGI [20]: 47.3 µM
- TGI [21]: > 100 µM
- TGI [22]: 52.1 µM
- TGI [23]: > 100 µM
- TGI [24]: 49.9 µM
- TGI [25]: > 100 µM
- TGI [27]: 67.9 µM
- TGI [28]: > 100 µM
- TGI [29]: 48.2 µM
- TGI [30]: 42.4 µM
- TGI [31]: 30.1 µM
- TGI [32]: > 100 µM
- TGI [33]: > 100 µM
- TGI [35]: 75.8 µM
- TGI [57]: > 100 µM
- TGI [37]: > 100 µM
- TGI [38]: > 100 µM
- TGI [40]: 35.8 µM
- TGI [41]: > 100 µM
- TGI [42]: 22.2 µM
- TGI [43]: > 100 µM
- TGI [44]: 32.7 µM
- TGI [45]: > 100 µM
- TGI [46]: > 100 µM
- TGI [49]: > 100 µM
- TGI [50]: > 100 µM
- TGI [51]: 28.2 µM
- TGI [52]: > 100 µM
- TGI [53]: > 100 µM
- TGI [54]: 56.2 µM
